Assays:
[1] = system: retroviral particles pseudotyped with the glycoproteins of either HCV, VSV or MLV
infectious HCV particles = assay: Influence on assembly and/or release of infectious HCV particles; format: cell-based, Hepatitis C virus
Description: (§1) Moreover, an influence of the compound on the steps leading to assembly and release of infectious HCV particles has been shown. Total production of infectious virus particles was reduced about 3-fold (FIG. 5c). […] However, this was not caused by an influence of the drug on lipoprotein secretion (ApoB/E, FIG. 6), on which HCV secretion strongly depends, nor a general influence on the secretory capacity of the cell as shown for albumin (FIG. 6).
FIGS. 5a-c show the influence on assembly and/or release.

[2] = system: Huh7-Lunet-hCD81-Gluc cells; assay: Cell viability by G-Luc activity in the whole life cycle assay; conditions: FIG. 1
HCV RNA replication = assay: Subgenomic HCV replicon assay (influence on replication); format: cell-based, Hepatitis C virus; conditions: subgenomic HCV replicon system, at non-toxic concentrations, FIG. 2
Procedure: Haprolid has been identified as a potent inhibitor of HCV. Experiments confirmed its antiviral activity at nanomolar concentrations (EC50<6 nM) with toxicity in low micromolar ranges (TC50˜0.1 μM) (FIG. 1). […] Employing HCVTCP, influences on HCV RNA replication and virus entry are quantified.

HCVTCP = assay: Preincubation experiment in the context of HCV TCP infection; format: cell-based, Hepatitis C virus; conditions: HCVTCP system, FIG. 3
[3] = system: lipoprotein secretion (ApoB/E), albumin; assay: Secretion of lipoproteins (ApoB/E) or albumin; format: cell-based; conditions: FIG. 6
Description: as §1

HCV = assay: microbe, parasite or virus in culture; format: cell-based; conditions: Hepatitis C virus, read-out: antiviral activity EC50

With `COC(C)CCCC1CC/C(C)=C\CC(=O)NC(Cc2ccccc2)C(=O)N(C)CC(=O)N(C)C(CC(C)C)C(=O)N2CCCC2C(=O)O1` (stereo not drawn) [Haprolid] as the molecule, how does the “decrease of infectivity of pseudotyped retroviral particles” value [1] read?
The value was 100-1000 fold.

And the “reduction of intracellular virus titer” value (infectious HCV particles; FIG. 5a)?
The value was 100 fold.

And the “reduction of total production of infectious virus particles” value (infectious HCV particles; FIG. 5c)?
Its value is “about 3 fold”.

And the “toxicity TC50” value [2]?
The value was roughly 100 nM.

And the “reduction of HCV RNA replication” value (HCV RNA replication)?
The value was 5 fold.

And the “effect of preincubation of cells or of virus compared with addition of compound during infection” value (HCVTCP)?
Its value is “only preincubation of the cells, but not of the virus resulted in a comparable effect”.

What about the “influence on secretion of albumin” value [3] of the same molecule?
Its value is “no influence”.

And the “influence on secretion of lipoproteins (ApoB/E)” value [3]?
Its value is “no influence”.

And the EC50 (HCV)?
The EC50 was less than 6 nM.
